Reference: the supplement of paper PMC7695840
“And” between values parts separate entries of the source, which are not always exact repeats. Equal entries are not always repeated. Structures can show the parent of a compound that is named as a salt.

Experiments:
[1] = system: Staphylococcus aureus MW2 delta-mecA (mecA-); experiment: IC50 (growth, competition assay); conditions: cefoxitin: subinhibitory
How it was run: (§1)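 Two fluorescent S. aureus MW2 strains, one carrying and one lacking the resistance gene, were pre-induced, mixed 1:1 and grown unshaken in LB in 1536-well plates for 20 h at 37 °C and 90% humidity with a subinhibitory drug dose set each day. Compounds were tested on five- or nine-point 2-fold gradients in two dye-swapped replicates. DsRed (540/590) and GFP (485/520) signals were scaled per plate between the medians of single-strain controls, and No Treatment was then set to 0.5. For each strain, IC50 was taken as the dose that halved the No Treatment signal, or else the maximal signal.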

[2] = system: Staphylococcus aureus MW2 (mecA+); experiment: IC50 (growth, competition assay); conditions: cefoxitin: subinhibitory
How it was run: as §1

Row | Structure (SMILES) | IC50 ([1]; fluorescent label: DsRed) | IC50 ([1]; fluorescent label: GFP) | IC50 ([2]; fluorescent label: DsRed) | IC50 ([2]; fluorescent label: GFP)
1 | C=CC(C1=CC(=O)C(OC)=CC1=O)c1ccccc1 (stereo unspecified) [4-METHOXYDALBERGIONE] | < 9.85 µM | 13.3 µM | 59.4 µM | 63.4 µM
2 | CNc1nc(-c2ccc3c(N)n[nH]c3c2)cc(N2C[C@@H](C(=O)NC3CCCCC3)CC[C@H]2C)n1 | 51.4 µM | 26.4 µM | 111 µM | 111 µM
3 | CN1CCN(c2cc3c(cc2F)c(=O)c(C(=O)O)cn3-c2ccc(F)cc2)CC1 [DICURAL] | < 9.85 µM | < 9.85 µM | < 9.85 µM | < 9.85 µM
4 | CC(=O)N1CCN(c2ccc(OCC3COC(Cn4ccnc4)(c4ccc(Cl)cc4Cl)O3)cc2)CC1 (stereo unspecified) [KETOZOLE] | 50.6 µM | 32.2 µM | 112 µM | 132 µM
5 | Cc1cc2nc3c(=O)[nH]c(=O)nc-3n(C[C@H](O)[C@H](O)[C@H](O)CO)c2cc1C [FLAVAXIN] | > 150 µM | > 150 µM | > 150 µM | > 150 µM
6 | C=C(NC(=O)C(=C)NC(=O)c1csc(C2=N[C@@H]3c4csc(n4)[C@H]4NC(=O)c5csc(n5)[C@H]([C@](C)(O)[C@@H](C)O)NC(=O)[C@H]5CSC(=N5)/C(=C/C)NC(=O)[C@H]([C@@H](C)O)NC(=O)c5csc(n5)[C@]3(CC2)NC(=O)[C@H](C)NC(=O)C(=C)NC(=O)[C@H](C)NC(=O)[C@H]([C@@H](C)CC)N[C@@H]2C=Cc3c([C@H](C)O)cc(nc3[C@H]2O)C(=O)O[C@@H]4C)n1)C(N)=O [BRYAMYCIN] | < 9.85 µM | < 9.85 µM | < 9.85 µM | < 9.85 µM
7 | CCCCCCCCCCCCCCC[C@H](O)[C@H](N)CO (racemic) [DL-erythro-Dihydrosphingosine] | < 9.85 µM | < 9.85 µM | 15.1 µM | 10.4 µM
8 | CC(C)CCC[C@@H](C)[C@H]1CC[C@H]2[C@@H]3CC[C@H]4CC(=O)CC[C@]4(C)[C@H]3CC[C@]12C [CHOLESTAN-3-ONE] | 17.3 µM | 31.9 µM | > 150 µM | > 150 µM
9 | CO[C@@]1(NC(=O)C2SC(=C(C(N)=O)C(=O)O)S2)C(=O)N2C(C(=O)O)=C(CSc3nnnn3C)CS[C@@H]21 (stereo partly specified) [CEFOTAN] | < 9.85 µM | < 9.85 µM | 14.9 µM | 14.9 µM
10 | N=C(NCCCCCCNC(=N)NC(=N)Nc1ccc(Cl)cc1)NC(=N)Nc1ccc(Cl)cc1 [LISIUM] | < 9.85 µM | < 9.85 µM | < 9.85 µM | < 9.85 µM
11 | Cc1coc2c1C(=O)C(=O)c1c-2ccc2c1CCCC2(C)C [Tanshinone IIA (Tanshinone B)] | 3.7 µM and 13.9 µM |  | 7.87 µM and 35.3 µM | 41.1 µM and 32.8 µM
12 | CC1(C)S[C@@H]2[C@H](NC(=O)C(C(=O)O)c3ccccc3)C(=O)N2[C@H]1C(=O)O (stereo partly specified) [CARBECIN] | < 9.85 µM | < 9.85 µM | 23.7 µM | 36.6 µM
13 | Oc1c(Cl)cc(Cl)cc1Sc1cc(Cl)cc(Cl)c1O [LOROTHIDOL] | < 9.85 µM | < 9.85 µM | < 9.85 µM | < 9.85 µM
14 | C#CC[C@H](c1nc2cc(Cl)ccc2c(=O)n1Nc1ccccc1)N(CCCN)C(=O)c1cccc(Cl)c1F [ARQ 621] | 23.9 µM | 11.2 µM | 89.2 µM | 105 µM
15 | O=C(OC[C@H]1O[C@@H](OC(=O)c2cc(O)c(O)c(OC(=O)c3cc(O)c(O)c(O)c3)c2)[C@H](OC(=O)c2cc(O)c(O)c(OC(=O)c3cc(O)c(O)c(O)c3)c2)[C@@H](OC(=O)c2cc(O)c(O)c(OC(=O)c3cc(O)c(O)c(O)c3)c2)[C@@H]1OC(=O)c1cc(O)c(O)c(OC(=O)c2cc(O)c(O)c(O)c2)c1)c1cc(O)c(O)c(OC(=O)c2cc(O)c(O)c(O)c2)c1 [TANNIC ACID] | 44 µM | 55.3 µM | 57 µM | 57.2 µM
16 | Cn1nnnc1SCC1=C(C(=O)O)N2C(=O)[C@@H](NC(=O)[C@H](OC=O)c3ccccc3)[C@H]2SC1 [MANDOL] | < 9.85 µM | < 9.85 µM | 21.3 µM | 22.2 µM
17 | COC(=O)c1c(C)c2c(c(C)c1O)OC(=O)c1c(C)c(Cl)c(O)c(Cl)c1O2 [LEOIDIN] | < 9.85 µM | < 9.85 µM | < 9.85 µM | < 9.85 µM
18 | C/C=C(/C(=C/C)c1ccc(O)cc1)c1ccc(O)cc1 [ESTRAGUARD] | 18.5 µM | < 9.85 µM | 30.7 µM | 52.9 µM
19 | CN(C)CCC=C1c2ccccc2CCc2ccccc21 [ELAVIL] | 33.3 µM | 18.5 µM | 111 µM | 112 µM
20 | CCn1cc(C(=O)O)c(=O)c2ccc(C)nc21 [Nalidixic acid sodium] | 17.2 µM | 16.2 µM | 34 µM | 29.8 µM
21 | Cc1cncc(CN2CCC(=C3c4ccc(Cl)cc4CCc4cccnc43)CC2)c1 [Rupatadine Fumarate] | 26.6 µM | 20.2 µM | 74.3 µM | 112 µM
22 | Cc1cc(C2CCCCC2)n(O)c(=O)c1 [Ciclopirox ethanolamine] | 28.3 µM and 61.2 µM | 29.8 µM and 57.2 µM | 24.5 µM and 49.9 µM | 29.7 µM and 60.7 µM
23 | CC(C)n1cnc2c(NCCc3ccc(O)cc3)nc(-c3csc4ccccc34)nc21 [StemRegenin 1] | 15.1 µM | 11.2 µM | 25.6 µM | 29.9 µM
24 | O=c1[nH]cc(F)c(=O)[nH]1 [5-Fluorouracil] | < 9.85 µM | < 9.85 µM | < 9.85 µM | < 9.85 µM
25 | O=C(O)c1cccnc1Nc1cccc(C(F)(F)F)c1 [Niflumic acid] | 25.8 µM | 32.3 µM | 18.5 µM | 21.4 µM
26 | C=C[C@](C)(O)CC[C@@H]1[C@@]2(C)CCCC(C)(C)[C@@H]2CC[C@@]1(C)O [SCLAREOL] | < 9.85 µM | < 9.85 µM | 31.4 µM | 28.9 µM
27 | O=C(O[C@H]1CN2CCC1CC2)N1CCc2ccccc2[C@@H]1c1ccccc1 [VESICARE] | 31.8 µM | 19.9 µM | 47.9 µM | 68.2 µM
28 | CN(C)c1ccc(C(=C2C=CC(=[N+](C)C)C=C2)c2ccc(N(C)C)cc2)cc1 [GVS] | < 9.85 µM | < 9.85 µM | < 9.85 µM | < 9.85 µM
